Data taken from patent US20220133650A1, “COMBINATION THERAPY FOR TREATMENT OF BRAIN DISORDERS” (B. G. NEGEV TECHNOLOGIES AND APPLICATIONS LTD., AT …, priority 2019, published 2022).

Legend:
exposed rat cortex [1] = test: Seizure (4AP)-induced BBB dysfunction, fluorescent angiography permeability index; assay type: in vivo, Sprague-Dawley rats; conditions: 4AP-induced seizures (SE), NaFlu tracer, mean±SEM
rat brain [2] = test: Contrast enhanced T1-weighted MRI after photo-induced thrombotic stroke, relative BBB dysfunction volume; assay type: in vivo; conditions: 48 h following photothrombosis; osmotic pumps i.p.; memantine 40 mg/kg, losartan 60 mg/kg; mean±SEM
rat brain [3] = test: T2-weighted MRI after photo-induced thrombotic stroke, relative lesion volume; assay type: in vivo; conditions: 48 h following photothrombosis; osmotic pumps i.p.; memantine 40 mg/kg, losartan 60 mg/kg; mean±SEM
exposed rat cortex [4] = test: Agonist-induced vascular permeability to NaFlu, agonists added to ACSF with neuronal activity blocked; assay type: in vivo, Sprague-Dawley rats; conditions: neuronal activity and synaptic transmission blocked, mean±SEM
[5] = 30 min after adding the agonist to ACSF
[6] = 10 min after adding the agonist to ACSF

Compound | shift in PI (BBB permeability index) from baseline (exposed rat cortex [1]; 10 min from seizure onset) [%] | shift in PI (BBB permeability index) from baseline (exposed rat cortex [1]; 30 min from seizure onset) [%] | relative BBB dysfunction volume (100*# BBBD voxels/# brain voxels) (rat brain [2]) [%] | relative lesion volume (100*# lesion voxels/# brain voxels) (rat brain [3]) [%] | shift in vascular permeability to NaFlu (PI shift from pre-substance application) (exposed rat cortex [4]; [5]) [%] | shift in vascular permeability to NaFlu (PI shift from pre-substance application) (exposed rat cortex [4]; [6]) [%]
N[C@H](CCCP(=O)(O)O)C(=O)O [AP5, D-(−)-2-amino-5-phosphonopentanoic acid] | −1.19±4.71 | 18.78±6.93 | – | – | – | –
CC12CC3CC(C)(C1)CC(N)(C3)C2 [memantine, 3,5-dimethyladamantan-1-amine] | 3.14±3.1 | 20.86±3.78 | 15.03±1.83 | 24.18±3.75 | – | –
TGF-β1: transforming growth factor beta 1, 10 ng/ml added to the ACSF | – | – | – | – | 15.3±7.62 | –
angiotensin II (DRVYIHPF; Angiotensin-2; UniProt P01019 25-32, looked up) [ATII, angiotensin II, agonist added to the ACSF, 70 μM] | – | – | – | – | −12.33±3.45 | −4.11±3.35
bovine-serum albumin: bovine serum albumin, 0.2 mM added to the ACSF | – | – | – | – | −0.33±8.36 | −2.55±4.6
